# Measured values taken from patent publication US11185530B2, “Composition for preventing or treating hearing loss, containing atorvastatin as active ingredient” (AJOU UNIVERSITY INDUSTRY-ACADEMIC COOPERATION FOUNDATION, priority 2017, dated 2021).
# What was measured:
# [1] = system: auditory cell line (HEI-OC1); experiment: WST-1 assay of cytotoxicity and cell viability; format: cell-based
# Experimental: The effect of palmitate on cytotoxicity and cell viability of the auditory cell line (HEI-OC1) was quantitatively analyzed through a WST-1 assay.
# In order to evaluate the function of atorvastatin against the cytotoxicity of palmitate, atorvastatin was pre-treated at each concentration and palmitate was post-treated at each concentration.
# The cytotoxic and apoptotic effects of palmitate and the cytoprotective effect of atorvastatin were analyzed using a student's T-test for statistical significance through quantification.
# HEI-OC1 cells [2] = experiment: PI staining and cell morphology analysis of apoptosis; format: cell-based; settings: HEI-OC1, 24 hours, 200 to 800 μM tested
# Experimental: As a cell experiment model that replaces the diabetic mouse model through a high fat/fructose diet, that is, obesity, a cytotoxicity experiment model based on saturated fatty acid palmitate, which is an intermediate product of lipid synthesis that is excessively abundant during obesity, has been devised. HEI-OC1 (house-ear institute-organ of Corti 1), the auditory cell line conducting the major auditory function, was used, and the diabetes-mediated hearing loss cell line model was treated with palmitate.
# In order to evaluate apoptosis, 24 hours after HEI-OC1 cells, the auditory cell line, were treated with 200 to 800 μM of palmitate, PI (propidium iodide) staining and the cell morphology thereof were analyzed. As a result, cell apoptosis was induced with a change in cell morphology from the palmitate concentration of 200 μM, and this phenomenon became more apparent as the concentration increased (FIG. 4 in part A).
# [3] = system: cochlea of the diabetic mouse model; experiment: H&E staining and immunohistochemistry (DHE, TUNEL) of cochlea of diabetic mouse model; format: in vivo, C57/BL6J male mice
# Experimental: Damage to cochlear hair cells around the base and middle turn (16 kHz) region, fibrocytes of the lateral wall and spiral ganglion cells of the cochlea of the diabetic mouse model established in Example 1 was evaluated through H & E (hematoxylin and eosin) staining and immunohistochemistry.
# Then, the auditory cells (cochlear hair cells) were observed through immunohistochemistry.
# The spiral ganglion cells were analyzed by H & E staining.
# Stria vascularis cells in the lateral wall in the cochlea (inner ear) were analyzed by H & E staining.
# [4] = system: auditory cell line (HEI-OC1); experiment: TUNEL immunostaining quantified by fluorescence microscopy; format: cell-based; settings: HEI-OC1, combination of palmitate and atorvastatin
# [5] = system: breast cancer cell xenograft model; settings: Front. Med. China, 2009; cited from earlier work
# [6] = system: auditory cell line (HEI-OC1); experiment: ATP detection luminescence; format: cell-based; settings: total extract of cells, palmitate plus atorvastatin
# Experimental: In addition, the effects of atorvastatin on the protection of cells and on energy metabolisms were evaluated using ATP detection luminescence.
# [7] = system: auditory cell line (HEI-OC1); experiment: DCFDA staining of reactive oxygen species; format: cell-based; settings: HEI-OC1, palmitate and atorvastatin
# [8] = system: mouse model of age-related hearing loss; settings: Neuroscience Letters, 2007; cited from earlier work
# HEI-OC1 cells [9] = experiment: Western blotting of cleaved caspase-3, PARP and AKT phosphorylation; format: cell-based
# diabetic mouse model = experiment: Body weight, blood glucose, glucose tolerance and insulin tolerance in diabetic mouse model; format: in vivo, C57/BL6J male mice; settings: 12-week diabetic mice, 20 mg/kg i.p. once every 2 days for 5 weeks, vs control group
# Experimental: The diabetes-mediated hearing loss model was fed with 60% high fat/30% fructose water for 12 weeks and bred to induce diabetes. The diabetes model was established by measuring blood glucose levels, and testing glucose tolerance and insulin tolerance once every two weeks for 12 weeks, weighing weekly and conducting food/water intake efficiency tests twice weekly.
# The experimental group was divided into an atorvastatin group (n=15, 20 mg/kg) and a control (vehicle) group (n=15, DMSO+normal saline) and intraperitoneal administration was conducted once every 2 days for 5 weeks. During the drug administration period, body weight and food intake efficiency tests were performed. Hearing tests, blood glucose measurement, and glucose and insulin tolerance tests were performed immediately before the end of the administration period.
# In addition, body weight, blood glucose level, glucose tolerance and insulin tolerance were measured in the experimental group, obtained by administering atorvastatin to the 12-week diabetic mice, and in the control group. […] All statistical significance was analyzed using one-way ANOVA of SPSS program and student's T-tests.
# [10] = system: noise-induced hearing loss rat model; settings: low dose, 5 mg/kg; Int J Occup Environ Med, 2016; cited from earlier work
# obese C57 mice = settings: Lipids in Health and Disease, 2014; cited from earlier work
# [11] = atorvastatin-administered diabetic mice
smiles,measurement,setting,value
CCCCCCCCCCCCCCCC(=O)O [palmitate],cytotoxicity (WST-1 cell viability assay),"[1]; 24 hours, palmitate at 100, 200 and 400 μM",20 to 40%
same,concentration from which cell apoptosis with change in cell morphology was induced,HEI-OC1 cells [2],≥ 200 μM
CC(C)c1c(C(=O)Nc2ccccc2)c(-c2ccccc2)c(-c2ccc(F)cc2)n1CC[C@@H](O)C[C@@H](O)CC(=O)O [atorvastatin],TUNEL expression in spiral ganglion cells,[3]; [11],suppressed
same,apoptosis (TUNEL) of stria vascularis cells,[3]; [11],markedly suppressed
same,enlargement of stria vascularis tissue of the lateral wall (H&E),[3]; [11],not observed
same,reactive oxygen species in cochlear hair cells (DHE immunohistochemistry),[3]; [11],"decreased reactive oxygen species, like normal mice"
same,spiral ganglion cell size and nucleus morphology (H&E),[3]; atorvastatin-administered diabetic mice vs normal group,"larger cell size than that of the normal group, but had no change in nucleus morphology"
same,morphology of cochlear hair cells (H&E),[3]; diabetic mice administered with atorvastatin,no morphological changes
same,number of TUNEL-stained cells,[4],statistically decreased
same,"cytotoxicity, treatment only with atorvastatin","[1]; 250, 500 or 1,000 nM, HEI-OC1",cytotoxicity was not observed
same,palmitate-induced apoptosis (WST-1 cell viability),"[1]; atorvastatin pre-treated, palmitate post-treated, 24 hours",significantly inhibited
same,tumor growth and metastasis,[5],inhibit tumor growth and metastasis
same,production of mitochondrial energy (ATP),[6],maintained the production of mitochondrial energy (ATP)
same,generation of reactive oxygen species (DCFDA),[7],statistically significantly inhibit
same,hearing loss in age-related hearing loss model,[8],delaying or inhibiting hearing loss
same,phosphorylation of AKT after treatment with atorvastatin,"HEI-OC1 cells [9]; HEI-OC1, by concentration and time",increased
same,AKT protein phosphorylation under palmitate treatment,"HEI-OC1 cells [9]; HEI-OC1, palmitate plus atorvastatin",inhibited the reduction of AKT protein phosphorylation
same,blood glucose level,diabetic mouse model,significantly improved
same,body weight,diabetic mouse model,reduced
same,glucose tolerance (GTT),diabetic mouse model,significantly improved
same,insulin tolerance (ITT),diabetic mouse model,significantly improved
same,hearing loss in noise-induced model,[10],statistically significant effect of inhibiting hearing loss
same,obesity-induced type 2 diabetes,obese C57 mice,inhibits obesity-induced type 2 diabetes
